Results as given in US4080466A, “Pharmaceutical compositions containing 4-hydroxyl-1,3-dithiolan-2-ylidene malonates” (Nihon Nohyaku Co., Ltd., priority 1976, dated 1978).

Key:
[1] = system: acute liver damage induced by carbon tetrachloride; test: Protective Effect on Acute Liver Damage associated with Centrilobular Necrosis (carbon tetrachloride); format: in vivo, mice (dd-strain); details: 250 mg/kg oral, average of 5 to 6 mice; for Liver damage index: 6 h before CCl4 (0.05 ml/kg oral), score 0 Normal, 2 slight, 4 clear, 6 heavy damage; for p-GPT (plasma glutamic-pyruvic transaminase activity): 6 h before CCl4, 24 h after CCl4, values over 1,000 regarded as 1,000
Source text: Carbon tetrachloride (CCl4) administration induces centrilobular necrosis of the liver associated with loss of diphosphopyridine nucleotide, hepatic glycogen, coenzyme A and increase in neutral fat. Release of several enzymes from the hepatocytes, and increase of enzyme activities in the plasma are recognized as the result of the damage of the liver. A suitable means for evaluating the degree of damage induced by CCl4 or the degree of protection afforded by drugs is to study the plasma glutamic-pyruvic transminase (p-GPT) activity.
Methods: The test compounds were dissolved or suspended in olive oil and administered orally at the dose of 250 mg/kg to the mice (Four-week-old male mice-dd strain). After 6 hours, CCl4 was administered orally (0.05 ml/kg as olive oil solution). Animals were killed 24 hours after CCl4 administration, and the liver was grossly observed. The plasma was obtained by centrifugation. Activities of p-GPT were determined by the method of Reitman and Frankel and expressed in Karmen units.
Score for liver damage index was as follows:
4 Clearly observable damage
Each figure indicates average of 5 to 6 mice. Values of p-GPT over 1,000 Karmen unit regarded as 1,000 for calculation of average for convenience.

[2] = system: chronic liver damage induced by thioacetamide; test: Therapeutic Effect on Chronic Liver Damage (thioacetamide), BSP test; format: in vivo, rats (Spraque Dawley strain); details: normal diet + 0.2% of compound after 12 times TAA 100 mg/kg
Description: In the tests of this Example, TAA was repeatedly administered to animals to prepare test animals suffering from somewhat chronic liver damages, and then the present compounds were administered thereto to know whether or not the compounds were effective against chronic hepatitis.
The degree of the liver damage and the therapeutic effects of the compounds were evaluated according to BSP test. The BSP test is a method in which BSP (sulfobromophthalein sodium), a dye known to be quickly metabolized in and excreted from the liver, is intravenously injected into animals and, after a definite period of time, the blood is taken out to measure the amount of BSP remaining in the plasma. In case the animals are suffering from the lever damage, the dye will remain, according to the degree of the damage, at the stage where a major portion of BSP metabolized and excreted in the case of normal animals.
Five groups of rats (Spraque Dawley strain) were treated as follows:
Group A: The rats were orally administered with 100 mg/kg of thioacetamide,at 3 days intervals for 36 days (12 times of the administration), then were submitted for 10 days to a normal diet.
Group B: The rats were orally administered with 100 mg/kg of thioacetamide at 3 days intervals for 36 days (12 times of the administration), then were submitted for 10 days to the normal diet + 0.2% of compound 4.
Group C: The rats were orally administered with 100 mg/kg of thioacetamide at 3 days intervals for 36 days (12 times of the administration), then were submitted for 10 days to the normal diet + 0.2% of compound 2.
Group D: The rats were orally administered with 100 mg/kg of thioacetamide at 3 days intervals for 36 days (12 times of the administration), then were submitted for 10 days to the normal diet + 0.2% of anethol trithion.
Group E: The rats were submitted to the normal diet as the control.
Five rats were sacrificed from each group at appropriate intervals for BSP (sulfobromophthalein) test, the results of which were shown as amounts (mg) of BSP remaining in 1 dl of plasma.

[3] = system: acute liver damage induced by allyl alcohol; test: Protective Effect on Acute Liver Damage associated with Periportal Necrosis (allyl alcohol), BSP test; format: in vivo, mouse (dd-strain); details: 100 mg/kg oral, 6 h before allyl alcohol (0.075 mg/kg oral); 24 h
Description: The compund of this invention or anethol trithion was orally administered to the male mouse (4 week-old, dd-strain) at the dose of 100 mg/kg. Six hours after it, allyl alcohol was orally administered at the dose of 0.075 mg/kg. Twenty four hours after it, the animals were sacrificed to collect blood samples.

[4] = system: acute hepatitis induced by D-galactosamine; test: Protective Effect on Acute Hepatitis associated with Mesenchymal Reaction and Discrete Lobular Necrosis (D-galactosamine); format: in vivo, rat (SD strain); details: 100 mg/kg oral, 6 h before D-galactosamine 600 mg/kg i.p. (+ 300 mg/kg)
Description: D-Galactosamine is a compound which induces a discrete lobular necrosis associated with mesenchymal reaction similar to the change observed in human viral hepatitis, so that it is frequently used in producing a model for viral hepatitis.
The compound of this invention or anethol trithion was administered orally to the male rat (SD strain) at the dose of 100 mg/kg. Six hours after it, D-galactosamine was intraperitoneally administered at the dose of 600 mg/kg. Four hours after it, an additional 300 mg/kg was administered intraperitoneally. Eight hours after it, the animals were sacrificed to collect the blood samples. P-GPT activity and triglyceride in the liver were measured to evaluate the effect of the compound of this invention.

[5] = system: bile flow; test: Cholagogic Action: effect on bile flow; format: in vivo, rats (SD-JCL strain); details: 200 mg/kg oral; for Bile flow: before treatment = 100
Description: (§1) Drugs as choleresis are used for patients to improve bile flow. In the present example, the effect of the compound of the invention on the quantities of bile and biliary salt is investigated. Methods:
(§2) The male rats (4 week-aged, SD-JCL strain) were anesthetized with sodium pentobarbital (37.5 mg/kg, intraperitoneal injection). The abdominal cavity was opened through a midline incision. The common bile duct was catheterized with polyethylene tube o.d. 0.8 mm. The catheter was brought to the outside through the abdominal incision would prior to closing. Bile was collected from the catheter continuously with time intervals of one hour. The quantity of bile produced in one hour was determined by weighing and that of biliary salt was determined by enzymatic method (Ikagaku Jikkenho Koza 1B, Biological Constituents II, edited by Tamio YAMAKAWA). The amount of biliary salt was represented in the term of cholic acid equivalent.
(§3) In the representation of the results, the quantities of bile and biliary salt produced in one hour prior to the administration of drug were taken as 100. The compound of this invention was orally administered at the dose of 200 mg/kg. As reference, anethol trithion was used.

[6] = system: excretion of biliary salt; test: Cholagogic Action: effect on the excretion of biliary salt; format: in vivo, rats (SD-JCL strain); details: 200 mg/kg oral, before treatment = 100
Description: as §1, §2, §3

[7] = system: fatty liver induced by ethionine; test: Effect on Fatty Liver (ethionine); format: in vivo, mouse (dd-strain); details: 24 h, 10 animals
Source text: But, the fatty liver is grouped into a couple of patterns from the mechanism of lipid accumulation or metabolism of lipoprotein in the liver. Ethionine is a typical example which induces first pattern of fatty liver. It inhibits RNA and protein synthesis and destructs polysome of the liver cell. Fatty liver is induced by inhibition of the protein synthesis and disturbance of lipoprotein secretion.
Usually, fatty liver is closely related to the accumulation of triglyceride in the liver. In the present example, the degree of fatty liver and protective or therapeutic effect against the fatty liver was evaluated by measurement of triglyceride content in the liver. Methods:
The compounds of this invention and methionine were independently dissolved or suspended into olive oil and administered orally to 4 week-old male mouse (dd-strain) at the dose of 250 mg/kg. One hour before it, simultaneously to it, or one hour after it, ethionine dissolved in equimolar NaOH solution was administered intraperitoneally at the dose of 200 mg/kg. Twenty four hours after the administration of ethionine, the animals were sacrificed and triglyceride content in the liver was determined by chromotropic acid method.

[8] = system: fatty liver induced by carbon tetrachloride; test: Therapeutic Effect on Fatty Liver (carbon tetrachloride); format: in vivo, rats (SD strain)
Description: Methods: […] The treated animals were left for 3 days after the last administration to maximize the manifestation of fatty liver. […] It was orally given everyday for 10 days at the dose of 50 or 250 mg/kg. On the 11th day, the animals were sacrificed. The therapeutic effect was evaluated by determining the content of liquid in the liver (triglyceride and total lipid) and examining the histopathological changes. Triglyceride and total lipid were determined colorimetrically by chromotropic acid method and Bragdon's oxidation method, respectively. Indices for the histopathological change is as follows: […]

COc1ccc(-c2cc(=S)ss2)cc1 [Anethol trithion, reference compound]
Liver damage index [1]: 1.6 | p-GPT (plasma glutamic-pyruvic transaminase activity) [1]: 38 Karmen units | BSP remaining in plasma ([2]; 2 days): 9.7 ± 4.1 mg/dL | BSP remaining in plasma ([2]; 5 days): 7.3 ± 3.4 mg/dL | BSP remaining in plasma ([2]; 10 days): 0.9 ± 0.1 mg/dL | BSP (residual quantity) [3]: 19.3 ± 4.6 | Triglyceride in liver [4]: 9.2 ± 1.5 mg/g | p-GPT [4]: 106 ± 30 Karmen unit | Bile flow ([5]; 1 hour after treatment): 114 ± 15 | Bile flow ([5]; 2 hours after treatment): 114 ± 15 | Bile flow ([5]; 3 hours after treatment): 102 ± 11 | Bile flow ([5]; 4 hours after treatment): 95 ± 7.7 | Quantity of total excreted bile relative to control ([5]; 5 hours after administration): 1.10 times | Bile flow ([5]; 5 hours after treatment): 86 ± 6.6 | Excretion of biliary salt ([6]; 1 hour after treatment): 108 ± 12 | Excretion of biliary salt ([6]; 2 hours after treatment): 89 ± 11 | Excretion of biliary salt ([6]; 3 hours after treatment): 66 ± 3.8 | Excretion of biliary salt ([6]; 4 hours after treatment): 47 ± 3.0 | Excretion of biliary salt ([6]; 5 hours after treatment): 3.3 ± 4.0

ClC(Cl)(Cl)Cl [Carbon tetrachloride, reference compound]
Liver damage index [1]: 5.2 | p-GPT (plasma glutamic-pyruvic transaminase activity) [1]: > 1,000 Karmen units

CC(C)COC(=O)C(C(=O)OCC(C)C)=C1SCC(O)S1 (centres unmarked) [Compound 3, Diisobutyl 4-hydroxy-1,3-dithiolan-2-ylidene malonate]
Liver damage index [1]: 0.3 | p-GPT (plasma glutamic-pyruvic transaminase activity) [1]: 52 Karmen units

CCOC(=O)C(C(=O)OCC)=C1SCC(OC(C)=O)S1 (centres unmarked) [Compound 5, Diethyl 4-acetoxy-1,3-dithiolan-2-ylidene malonate]
Liver damage index [1]: 1.2 | p-GPT (plasma glutamic-pyruvic transaminase activity) [1]: 106 Karmen units

CCOC(=O)C(C(=O)OCC)=C1SCC(OC(=O)CC)S1 (centres unmarked) [Compound 6, Diethyl 4-propionyloxy-1,3-dithiolan-2-ylidene malonate]
Liver damage index [1]: 1.4 | p-GPT (plasma glutamic-pyruvic transaminase activity) [1]: 210 Karmen units

CC(=O)OC1CSC(=C(C(=O)OC(C)C)C(=O)OC(C)C)S1 (centres unmarked) [Compound 7, Diisopropyl 4-acetoxy-1,3-dithiolan-2-ylidene malonate]
Liver damage index [1]: 0.4 | p-GPT (plasma glutamic-pyruvic transaminase activity) [1]: 80 Karmen units

CCC(=O)OC1CSC(=C(C(=O)OC(C)C)C(=O)OC(C)C)S1 (centres unmarked) [Compound 8, Diisopropyl 4-propionyloxy-1,3-dithiolan-2-ylidene malonate]
Liver damage index [1]: 0.6 | p-GPT (plasma glutamic-pyruvic transaminase activity) [1]: 62 Karmen units

CCCOC(=O)C(C(=O)OCCC)=C1SCC(OC(C)=O)S1 (centres unmarked) [Compound 9, Di-n-propyl-4-acetoxy-1,3-dithiolan-2-ylidene malonate]
Liver damage index [1]: 0.8 | p-GPT (plasma glutamic-pyruvic transaminase activity) [1]: 102 Karmen units

CCSCC[C@H](N)C(=O)O [Ethionine, reference compound]
Triglyceride ([7]; ethionine alone (positive control), 200 mg/kg i.p.): 15.6 ± 1.34 mg/g-liver

CSCC[C@H](N)C(=O)O [Methionine, reference compound]
Triglyceride ([7]; 250 mg/kg oral, simultaneous with ethionine (0 hr)): 10.8 ± 0.88 mg/g-liver | Total lipid ([8]; 250 mg/kg oral, 10 days): 156.8 ± 23.8 mg/g-liver | Triglyceride ([8]; 250 mg/kg oral, 10 days): 42.7 ± 7.2 mg/g-liver | therapeutic effect on fatty liver (in words) ([8]; 50 or 250 mg/kg oral): hardly exhibited a therapeutic effect | Degree of fatty liver (histopathological examination) ([8]; dose not printed in Table 8, one symbol per animal): ± ± ++ ++ ++ + +

NC(=O)CCCCC1CCSS1 (centres unmarked) [Thioctic acid amide, reference compound]
Liver damage index [1]: 4.8 | p-GPT (plasma glutamic-pyruvic transaminase activity) [1]: 763 Karmen units
